Values of other authors as cited in US20050277597A1, “Use of N-L-alpha-aspartyl-L-phenylalanine 1-methyl ester to treat sunburn and other burns” (Oklahoma Medical Research Foundation, priority 2004, published 2005).
Where a SMILES comes first, the peptide text is derived from it.

COC(=O)[C@H](Cc1ccccc1)NC(=O)[C@@H](N)CC(=O)O [aspartame, N-L-aspartyl-L-phenyalanine 1-methyl ester] (H-Asp-Phe-OMe)
maximum solubility in water (pH 2.2, 25° C.): 20 mg/mL
minimum solubility in water (pH 5.2 (pHi), 25° C.): 13.5 mg/mL
